In US20060235046A1, “Use of an epidermal growth factor receptor kinase inhibitor (EGFR) in gefitinib resistant patients” (Wyeth, priority 2005, published 2006):

What was measured:
NSCLC = conditions: in some cases; re-treatment when NSCLC recurs in patients treated with gefitinib; cited from earlier work
[1] = test system: non-small cell lung cancer (NSCLC); test: Report on 2 patients with non-small cell lung cancer (NSCLC) who received EKB-569 after gefitinib and recurrence; format: in vivo, human; conditions: two patients (Exon 19 del E746-A750, 25 mg/day for 9 months; Exon 21 L858R, 35 mg/day for 4 months) after treatment with gefitinib and recurrence of NSCLC
Description: Report on 2 Patients with Non-Small Cell Lung Cancer (NSCLC) Who Received EKB-569.
A person with a smoking history BI 720 […] having adenocarcinoma and cT0NOM1 (multiple pulmonary metastasis). Exon 19 deletion E746-A750 is identified. Herception test score was 0+ and EGFR score 2+. The patient was given 25 mg/day EKB-569 for 9 months.
A person with a smoking history of BI 30 (10×3 years) having adenocarcinoma performance status 1, cT0N3M1 (pulmonary, brain and bone). Exon 21 point mutation L858R. HercepTest score +, EGFR score 3+, EKB-569 35 mg/day for 4 months.
Phase 1 dose-escalation study of EKB-569 was completed in Japanese patients with advanced-stage malignancies known to overexpress EGFR.

## COc1cc2ncnc(Nc3ccc(F)c(Cl)c3)c2cc1OCCCN1CCOCC1 [gefitinib]
NSCLC
  effectiveness of re-treatment in recurrent NSCLC: effective

## CCOc1cc2ncc(C#N)c(Nc3ccc(F)c(Cl)c3)c2cc1NC(=O)C=CCN(C)C [EKB-569, 4-dimethylamino-but-2-enoic acid [4-(3-chloro-4-fluoro-phenylamino)-3-cyano-7-ethoxy-quinolin-6-yl]-amide]
[1]
  clinical effectiveness in NSCLC patients: effective
